In ChEMBL document CHEMBL3994562 (Medchemcomm, 2016):
Values after ≈ are worked out from the molar mass of the structure shown.

How the values were obtained:
HCT-116 [1] = assay: Antiproliferative activity in human HCT116 cells after 72 hrs by MTT assay; type: functional, cell-based; conditions: HCT-116, 72 h
A549 [2] = assay: Antiproliferative activity in human A549 cells after 72 hrs by MTT assay; type: functional, cell-based; conditions: A549, 72 h
[3] = Aqueous solubility of the compound in water after 48 hrs by UV spectrophotometer; type: physicochemical
HepG2 [4] = assay: Antiproliferative activity in human HepG2 cells after 72 hrs by MTT assay; type: functional, cell-based; conditions: HepG2, 72 h
MCF7 [5] = assay: Antiproliferative activity in human MCF7 cells after 72 hrs by MTT assay; type: functional, cell-based; conditions: MCF7, 72 h
HCT-116 [6] = assay: Induction of apoptosis in human HCT116 cells at 4 uM after 48 hrs by annexin V-FITC/propidium iodide staining-based flow cytometric method; type: functional
HCT-116 [7] = assay: Cell cycle arrest in human HCT116 cells assessed as decrease in cell population at G0/G1 phase after 24 hrs by propidium iodide staining-based flow cytometric analysis; type: functional
HepG2 [8] = assay: Potency index, ratio of 5-FU IC50 to compound IC50 for human HepG2 cells; type: functional
HCT-116 [9] = assay: Induction of apoptosis in human HCT116 cells assessed as downregulation of cyclin B protein level after 24 hrs by Western blot method; type: functional, cell-based
Bel-7402 [10] = assay: Antiproliferative activity in human Bel7402 cells after 72 hrs by MTT assay; type: functional, cell-based; conditions: Bel-7402, 72 h
HCT-116 [11] = assay: Potency index, ratio of 5-FU IC50 to compound IC50 for human HCT116 cells; type: functional
Bel-7402 [12] = assay: Antiproliferative activity in 5-FU resistant human Bel7402 cells after 72 hrs by MTT assay; type: functional, cell-based; conditions: Bel-7402, 72 h
HCT-116 [13] = assay: Induction of apoptosis in human HCT116 cells after 48 hrs by annexin V-FITC/propidium iodide staining-based flow cytometric method; type: functional, cell-based
HCT-116 [14] = assay: Cell cycle arrest in human HCT116 cells assessed as accumulation at G2/M phase after 24 hrs by propidium iodide staining-based flow cytometric analysis; type: functional
HCT-116 [15] = assay: Induction of apoptosis in human HCT116 cells assessed as downregulation of CDK1 protein level after 24 hrs by Western blot method; type: functional, cell-based
HL-60 = assay: Antiproliferative activity against human HL60 cells; type: functional, cell-based
MCF7 [16] = assay: Antiproliferative activity against human MCF7 cells; type: functional, cell-based
Bel-7402 [17] = assay: Antiproliferative activity against human Bel7402 cells after 24 to 72 hrs by MTT assay; type: functional, cell-based
SGC-7901 = assay: Antiproliferative activity against human SGC7901 cells after 24 to 72 hrs by MTT assay; type: functional, cell-based
HepG2 [18] = assay: Antiproliferative activity against human HepG2 cells
A549 [19] = assay: Antiproliferative activity against human A549 cells
[20] = Antiproliferative activity against human nasopharyngeal carcinoma cells; type: functional, cell-based; conditions: Nasopharyngeal carcinoma cell
SCC-4 = assay: Antiproliferative activity against human SCC4 cells; type: functional, cell-based

Compound	IC50 (HCT-116 [1]) [µM]	IC50 (A549 [2]) [µM]	solubility at 48 h [3] [mg/mL]	IC50 (HepG2 [4]) [µM]	IC50 (MCF7 [5]) [µM]	further results
CCN(CC)CCCCOC(=O)c1cc(O)c2c(c1)C(=O)c1cccc(O)c1C2=O.Cl	1.81	3.86	13	1.34	5.36	
CCN1CCN(CCCCCCOC(=O)c2cc(O)c3c(c2)C(=O)c2cccc(O)c2C3=O)CC1.Cl.Cl	1.93	6.42	10.2	1.47	3.25	
Cl.O=C(OCCCCCN1CCOCC1)c1cc(O)c2c(c1)C(=O)c1cccc(O)c1C2=O	8.73	10.8	12.3	6.03	9.85	
Cl.Cl.O=C(OCCCCCCN1CCN(CCO)CC1)c1cc(O)c2c(c1)C(=O)c1cccc(O)c1C2=O	0.31	5.28	15.1	0.85	7.63	Activity (HCT-116 [6]): 56.08%; Activity (HCT-116 [7]): Dose-dependent effect; Ratio IC50 (HepG2 [8]): 5 - 18; Activity (HCT-116 [9]): Dose-dependent effect; IC50 (Bel-7402 [10]): 2.36 µM; Ratio IC50 (HCT-116 [11]): 5 - 18; IC50 (Bel-7402 [12]): 4.48 µM; Activity (HCT-116 [13]): Dose-dependent effect; Activity (HCT-116 [14]): Dose-dependent effect; Activity (HCT-116 [15]): Dose-dependent effect
CCN1CCN(CCCCOC(=O)c2cc(O)c3c(c2)C(=O)c2cccc(O)c2C3=O)CC1.Cl.Cl	1.88	8.56	10.5	2.51	5.23	
Cl.O=C(OCCCCCN1CCCCC1)c1cc(O)c2c(c1)C(=O)c1cccc(O)c1C2=O	5.28	8.69	10.3	6.12	1.95	
CN1CCN(CCCCCOC(=O)c2cc(O)c3c(c2)C(=O)c2cccc(O)c2C3=O)CC1.Cl.Cl	1.5	6.32	13.7	2.95	1.13	
CCN1CCN(CCCCCOC(=O)c2cc(O)c3c(c2)C(=O)c2cccc(O)c2C3=O)CC1.Cl.Cl	2.39	6.78	10	2.86	0.42	
Cl.Cl.O=C(OCCCCCN1CCN(CCO)CC1)c1cc(O)c2c(c1)C(=O)c1cccc(O)c1C2=O	0.55	5.21	12.2	2.51	0.95	
Cl.Cl.O=C(OCCCN1CCN(CCO)CC1)c1cc(O)c2c(c1)C(=O)c1cccc(O)c1C2=O	0.71	7.11	12.2	4.02	8.86	
Cl.O=C(OCCCN1CCOCC1)c1cc(O)c2c(c1)C(=O)c1cccc(O)c1C2=O	4.92	24.9	12.1	1.81	27.3	
CCN1CCN(CCCOC(=O)c2cc(O)c3c(c2)C(=O)c2cccc(O)c2C3=O)CC1.Cl.Cl	3.97	7.62	10.1	1.36	3.59	
Cl.O=C(OCCCCN1CCOCC1)c1cc(O)c2c(c1)C(=O)c1cccc(O)c1C2=O	3.29	21.4	11.7	6.23	24.4	
Cl.Cl.O=C(OCCCCN1CCN(CCO)CC1)c1cc(O)c2c(c1)C(=O)c1cccc(O)c1C2=O	0.85	2.5	12	3.65	4	
CN1CCN(CCCOC(=O)c2cc(O)c3c(c2)C(=O)c2cccc(O)c2C3=O)CC1.Cl.Cl	3.75	8.41	13.3	4.93	11.4	
Cl.O=C(OCCCCN1CCCCC1)c1cc(O)c2c(c1)C(=O)c1cccc(O)c1C2=O	2.03	26.4	10.7	0.89	28.9	
CCN(CC)CCCCCOC(=O)c1cc(O)c2c(c1)C(=O)c1cccc(O)c1C2=O.Cl	9.05	27.3	12.4	12.2	15.2	
CCN(CC)CCCOC(=O)c1cc(O)c2c(c1)C(=O)c1cccc(O)c1C2=O.Cl	0.65	6.23	13.6	2.94	8.28	
CN1CCN(CCCCOC(=O)c2cc(O)c3c(c2)C(=O)c2cccc(O)c2C3=O)CC1.Cl.Cl	2.93	2.9	14.8	3.32	6.63	
CCN(CC)CCCCCCOC(=O)c1cc(O)c2c(c1)C(=O)c1cccc(O)c1C2=O.Cl	0.83	4.39	13.8	0.33	7.56	Ratio IC50 (HepG2 [8]): 5 - 18; IC50 (Bel-7402 [10]): 6.49 µM; Ratio IC50 (HCT-116 [11]): 5 - 18; IC50 (Bel-7402 [12]): 7.31 µM
O=c1[nH]cc(F)c(=O)[nH]1 [FLUOROURACIL]	4.3	10.3		5.82	4.32	IC50 (Bel-7402 [10]): 7.57 µM; IC50 (Bel-7402 [12]): 214 µM
Cl.O=C(OCCCN1CCCCC1)c1cc(O)c2c(c1)C(=O)c1cccc(O)c1C2=O	0.77	5.41	11.3	3.44	7.74	
Cl.O=C(OCCCCCCN1CCOCC1)c1cc(O)c2c(c1)C(=O)c1cccc(O)c1C2=O	3.26	25.4	12.8	0.79	27.5	
Cl.O=C(OCCCCCCN1CCCCC1)c1cc(O)c2c(c1)C(=O)c1cccc(O)c1C2=O	0.48	3.01	11	0.52	5.92	Ratio IC50 (HepG2 [8]): 5 - 18; IC50 (Bel-7402 [10]): 3.95 µM; Ratio IC50 (HCT-116 [11]): 5 - 18; IC50 (Bel-7402 [12]): 5.95 µM
O=C(O)c1cc(O)c2c(c1)C(=O)c1cccc(O)c1C2=O [RHEIN]	116	120	0.0456 (≈ 160 µM)	101	106	IC50 (HL-60): 100 µM; IC50 (Bel-7402 [10]): 120 µM; IC50 (MCF7 [16]): 130 µM; IC50 (Bel-7402 [17]): 110 µM; IC50 (SGC-7901): 150 µM; IC50 (HepG2 [18]): 710 µM; IC50 (Bel-7402 [12]): 136 µM; IC50 (A549 [19]): 80 µM; IC50 [20]: 140 µM; IC50 (SCC-4): 58 µM
CN1CCN(CCCCCCOC(=O)c2cc(O)c3c(c2)C(=O)c2cccc(O)c2C3=O)CC1.Cl.Cl	0.76	3.39	12.9	0.42	5.05	
